Holding throughout (assay type): cell-based
The target in one data set is T1, VGEc (Drosophila melanogaster, UniProt P34021).
T1 construct: expressed in transfected cells; host or cells: 293 cells
T1 sequence (P34021 329-878): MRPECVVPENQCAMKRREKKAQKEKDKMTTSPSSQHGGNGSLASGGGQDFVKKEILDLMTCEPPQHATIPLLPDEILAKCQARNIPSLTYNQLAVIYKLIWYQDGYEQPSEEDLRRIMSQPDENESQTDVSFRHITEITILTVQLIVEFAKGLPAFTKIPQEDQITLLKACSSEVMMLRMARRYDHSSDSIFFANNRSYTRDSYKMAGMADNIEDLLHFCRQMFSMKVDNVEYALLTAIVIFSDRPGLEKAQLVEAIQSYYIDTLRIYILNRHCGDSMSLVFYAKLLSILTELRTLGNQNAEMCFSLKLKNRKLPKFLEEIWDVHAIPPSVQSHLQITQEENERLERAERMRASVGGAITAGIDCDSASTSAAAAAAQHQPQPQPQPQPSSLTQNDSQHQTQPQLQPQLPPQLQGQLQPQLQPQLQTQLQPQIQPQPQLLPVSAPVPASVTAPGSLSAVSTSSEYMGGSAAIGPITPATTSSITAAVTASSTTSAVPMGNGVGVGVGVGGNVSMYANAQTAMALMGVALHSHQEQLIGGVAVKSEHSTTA
As to the kind of experiment: Induction of GRE reporter G4M-77CO by chimeric receptor VGEc in 293 cells. The conditions noted are these: normalized to hGH, SD in parentheses. The text has this: (§1) Finally, I determined if the activity of DHR23α fusion proteins could be further enhanced by inclusion of a potent viral transactivation domain. I constructed VGEc and VLxEc fusion genes by replacing a portion of the GR N-terminal activation domain in GGEc and GLxEc, respectively, with the herpes virus VP16 acidic activation domain (I. Sadowski et al., […]. 335, 563 [1988]; D. J. Cousens, R. Greaves, C. R. Coding, and P. O'Hare, EMBO J. 8, 2337 [1989]) (Fig. 4A). In transfected cells, these proteins accumulated to similar levels as derivatives lacking the VP16 activation domain (Fig. 4B). Both VGEc and VLxEc acted in an ecdysteroid-dependent fashion to induce activity of the appropriate reporter gene (Tables 1 and 2). However, the activity of VGEc and VLxEc was 5 and 10 fold greater than GGEc and GLxEc, respectively (M..A. Labow, S.B. Baim, T. Shenk, and A. J. Levine, Mol. and Cell. Biol. 10, 3343 [1990]). Thus, the DHR23α ligand-binding domain can be used to regulate the activities of viral, mammalian and bacterial DNA-binding or transactivation domains.

The next data set addresses T2, G"E"Ec (UniProt P06536+P34021, G458E/S459G).
T2 construct: expressed in transfected cells
Description: Induction of ERE reporter E4M-77CO by chimeric receptor G"E"Ec. The conditions noted are these: cells incubated 48 hrs. Here is the method: Figure. 6. Induction of […] (EREs) by chimeric receptors. Cells were transfected with expression plasmids encoding eiher DHR23α (EcEcEc), G"E"G or G"E"Ec and E4M-77CO, that contains 4 EREs fused to the MTV promoter. Cells were incubated for 48 hrs with or wihout (-) or with muristerone A (M) or dexamethasone (D).
I then determined if a DHR23 fusion protein could regulate genes normally responsive to estrogens.
Cells were transfected with expression plasmids encoding either DHR23α (EcEcEc), G"E"G or G"E"Ec and E4M-77CO, that contains 4 EREs fused to the MTV promoter. Cells were incubated for 48 hrs with or without (-) or with muristerone A (M) or dexamethasone (D). Reporter gene activity was determined as described above for Figure 2.

For the next data set, the target named is T3, GXG (Rattus norvegicus, UniProt P06536).
T3 construct: expressed in transfected cells
T3 sequence (P06536 528-795): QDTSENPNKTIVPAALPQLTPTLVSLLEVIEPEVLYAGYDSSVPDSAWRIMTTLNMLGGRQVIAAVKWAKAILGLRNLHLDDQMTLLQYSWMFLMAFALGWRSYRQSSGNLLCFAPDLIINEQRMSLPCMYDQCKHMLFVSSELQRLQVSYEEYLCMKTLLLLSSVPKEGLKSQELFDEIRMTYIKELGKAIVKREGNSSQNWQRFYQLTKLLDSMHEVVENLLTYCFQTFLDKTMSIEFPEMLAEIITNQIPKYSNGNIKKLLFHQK
Description: Lex-operator reporter X4C-33CO with GXG. The conditions noted are these: receptor GXG, SD in parentheses. The text has this:
(§2) Such fusion constructs are expected to be useful in regulating the expression of exogenous genes introduced into transgenic mammals or mammalian cells. I next determined if the DHR23α ligand-binding domain could be used to regulate the activity of a DNA-binding domain not normally expressed in mammalian cells. I constructed the chimeric gene GLxEc by replacing the sequences coding for the GR DNA-binding domain in the GGEc fusion with those encoding the DNA-binding domain of the Escherichia coli LexA repressor (J. W. Little and S. A. Hill, Proc. Natl. Acad. Sci. U.S.A. 82, 2301 [1985]) (Fig. 4). A reporter gene, X4C-33CO was constructed that contains 4 copies of a 26-bp lex operator (R. Brent and M. Ptashne, Nature 312, 612 [1984]) at position -33 of the CMV promoter. GLxEc had no effect on the expression of a OC-33CO, a reporter gene lacking the lex operator (Fig. 6B).
(§3) Illustrated in Table 2 is the transcriptional activation by receptor-LexA fusion proteins. Effector plasmids encoding the indicated receptor proteins were transfected with a reporter gene either containing (X4C-33CO) or lacking (OC-33CO) lex-operators. […] The cells were incubated either with (+) or without (-) muristerone A. The fold induction was determined as described previously; the standard deviations are shown in parenthesis.

For the next data set, the target named is T4, GXEc (Drosophila melanogaster, UniProt P34021).
T4 construct: expressed in transfected cells
T4 sequence (P34021 329-878): T1 sequence (P34021 329-878)
As to the kind of experiment: Lex-operator reporter X4C-33CO with GXEc. The conditions noted are these: receptor GXEc, SD in parentheses.
Text: as §2, §3

Data set [1] has as its target T5, VXEc (Drosophila melanogaster, UniProt P34021).
T5 construct: expressed in transfected cells
T5 sequence (P34021 329-878): T1 sequence (P34021 329-878)
As to the kind of experiment: Lex-operator reporter X4C-33CO with VXEc. The following applies: receptor VXEc, SD in parentheses.
Text: as §1
(§4) Illustrated in Table 2 is the transcriptional activation by receptor-LexA fusion proteins. […] The cells were incubated either with (+) or without (-) muristerone A. The fold induction was determined as described previously; the standard deviations are shown in parenthesis.

For data set [2], the target named is T5, VXEc. As to the kind of experiment: Reporter OC-33CO lacking lex-operators with VXEc. The following applies: receptor VXEc, SD in parentheses.
Text: as §1, §4

Data set [3] has as its target T6, EcEcEc (Drosophila melanogaster, UniProt P34021). As to the kind of experiment: Lex-operator reporter X4C-33CO with EcEcEc (DHR23α). Also on record: To isolate the full-length DHR23α clones; expressed in transfected cells. The conditions noted are these: receptor EcEcEc, SD in parentheses.
Text: as §2, §3

Data set [4] has as its target T6, EcEcEc. As to the kind of experiment: Induction of GRE reporter G4M-77CO by EcEcEc (DHR23α) in 293 cells. Also on record: To isolate the full-length DHR23α clones; expressed in transfected cells; host or cells: human 293 cells. The following applies: receptor EcEcEc, normalized to hGH, SD in parentheses, 2880 min.
Description: "G" and "Ec" refer to the glucocorticoid receptor and DHR23α, respectively.
293 cells were transfected with effector plasmids encoding the indicated receptor proteins and the reporter gene G4M-77CO. These transfected cells were incubated either without added hormone (-), with muristerone A (M) or with dex (D).

T6 sequence (P19793 whole entry): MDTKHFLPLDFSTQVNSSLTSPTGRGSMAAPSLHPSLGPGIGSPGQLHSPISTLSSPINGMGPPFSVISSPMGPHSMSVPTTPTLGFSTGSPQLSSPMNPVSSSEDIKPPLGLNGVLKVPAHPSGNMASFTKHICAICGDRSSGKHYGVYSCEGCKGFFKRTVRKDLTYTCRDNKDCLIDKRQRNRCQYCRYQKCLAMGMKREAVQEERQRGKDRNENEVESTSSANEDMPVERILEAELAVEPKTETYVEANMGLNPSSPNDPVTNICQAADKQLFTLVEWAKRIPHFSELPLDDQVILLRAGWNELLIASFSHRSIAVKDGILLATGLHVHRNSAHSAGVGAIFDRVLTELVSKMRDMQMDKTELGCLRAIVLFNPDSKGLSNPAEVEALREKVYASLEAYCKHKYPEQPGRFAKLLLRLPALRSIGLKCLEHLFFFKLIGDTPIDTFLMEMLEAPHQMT
T6 sequence (P34021 whole entry): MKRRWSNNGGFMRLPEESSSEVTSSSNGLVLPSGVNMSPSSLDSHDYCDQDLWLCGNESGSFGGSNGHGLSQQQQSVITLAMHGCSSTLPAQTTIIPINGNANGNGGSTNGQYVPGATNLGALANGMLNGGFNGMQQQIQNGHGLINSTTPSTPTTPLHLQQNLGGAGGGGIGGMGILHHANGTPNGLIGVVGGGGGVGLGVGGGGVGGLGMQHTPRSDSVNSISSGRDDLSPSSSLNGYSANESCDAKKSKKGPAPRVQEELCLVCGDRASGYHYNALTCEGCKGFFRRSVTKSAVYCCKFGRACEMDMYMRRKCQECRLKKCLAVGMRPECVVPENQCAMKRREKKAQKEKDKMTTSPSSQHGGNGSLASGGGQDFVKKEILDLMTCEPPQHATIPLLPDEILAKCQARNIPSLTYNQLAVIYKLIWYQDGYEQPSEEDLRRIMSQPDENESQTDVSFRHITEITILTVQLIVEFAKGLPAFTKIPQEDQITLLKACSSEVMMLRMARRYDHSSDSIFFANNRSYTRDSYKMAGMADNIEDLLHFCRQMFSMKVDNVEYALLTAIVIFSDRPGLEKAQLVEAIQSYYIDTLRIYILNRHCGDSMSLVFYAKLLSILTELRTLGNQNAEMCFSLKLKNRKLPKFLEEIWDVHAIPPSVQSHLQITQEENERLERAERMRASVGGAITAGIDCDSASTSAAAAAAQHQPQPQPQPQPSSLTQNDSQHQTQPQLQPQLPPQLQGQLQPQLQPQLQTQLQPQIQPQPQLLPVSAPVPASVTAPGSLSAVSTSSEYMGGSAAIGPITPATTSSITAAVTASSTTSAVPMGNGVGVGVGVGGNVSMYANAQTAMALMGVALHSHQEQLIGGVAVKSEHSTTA
T2 sequence (P19793 whole entry): as the sequence (P19793 whole entry) above
T2 sequence (P06536+P34021 fused P06536:G458E/P06536:S459G): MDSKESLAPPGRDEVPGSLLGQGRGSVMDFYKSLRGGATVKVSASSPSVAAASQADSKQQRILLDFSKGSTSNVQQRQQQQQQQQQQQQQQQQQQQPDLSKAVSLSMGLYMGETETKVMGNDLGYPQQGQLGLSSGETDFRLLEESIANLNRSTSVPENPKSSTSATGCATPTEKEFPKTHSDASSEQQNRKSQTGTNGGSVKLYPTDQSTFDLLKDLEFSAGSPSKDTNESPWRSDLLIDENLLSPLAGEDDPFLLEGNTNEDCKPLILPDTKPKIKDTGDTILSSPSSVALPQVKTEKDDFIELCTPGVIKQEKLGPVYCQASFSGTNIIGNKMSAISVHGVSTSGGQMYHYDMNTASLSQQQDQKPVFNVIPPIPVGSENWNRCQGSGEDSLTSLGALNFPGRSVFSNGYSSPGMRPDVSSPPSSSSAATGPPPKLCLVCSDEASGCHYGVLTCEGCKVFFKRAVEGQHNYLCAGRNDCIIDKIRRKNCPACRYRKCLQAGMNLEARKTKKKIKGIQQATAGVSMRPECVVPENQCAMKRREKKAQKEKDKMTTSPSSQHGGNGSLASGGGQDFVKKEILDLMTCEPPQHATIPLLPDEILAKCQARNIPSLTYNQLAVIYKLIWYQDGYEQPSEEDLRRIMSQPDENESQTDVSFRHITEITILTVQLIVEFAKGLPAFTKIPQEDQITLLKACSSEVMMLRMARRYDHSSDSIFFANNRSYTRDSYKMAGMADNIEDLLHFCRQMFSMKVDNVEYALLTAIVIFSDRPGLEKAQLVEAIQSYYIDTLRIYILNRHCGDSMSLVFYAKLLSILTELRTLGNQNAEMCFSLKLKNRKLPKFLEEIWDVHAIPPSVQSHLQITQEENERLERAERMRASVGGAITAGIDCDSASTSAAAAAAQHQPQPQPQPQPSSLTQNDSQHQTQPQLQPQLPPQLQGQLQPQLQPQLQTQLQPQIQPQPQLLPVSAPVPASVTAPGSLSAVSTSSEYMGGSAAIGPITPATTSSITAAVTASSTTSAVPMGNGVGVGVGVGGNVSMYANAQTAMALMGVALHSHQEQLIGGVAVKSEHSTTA

Consider `CC(C)CCC(O)[C@](C)(O)[C@H]1CC[C@@]2(O)C3=CC(=O)C4(O)CC(O)C(O)C[C@]4(C)[C@H]3C(O)C[C@]12C` (stereo partly shown) [muristerone A, 2,3,5,11,14,20,22-Heptahydroxy-7-cholesten-6-one], for which the fold induction – broadly, the signal under treatment as a multiple of the control signal – on VGEc was 3117 (240) fold; on GXG, 1.1 (0.2) fold; on GXG (listed as muristerone) it was “not induced”; at GXEc, 44.3 (8.3) fold; on VXEc [1] it was 563 (61) fold; on VXEc [2] it was 1.0 (0.2) fold. Also, the fold induction was 1.4 (0.1) fold on EcEcEc [3], “not induced” on EcEcEc [3] (listed as muristerone) and 0.9 (0.2) fold on EcEcEc [4]. The “regulation of ERE containing reporter gene E4M-77CO” value on G"E"Ec is “regulates the ERE containing reporter gene E4M-77CO in a muristerone-dependent fashion”.

The values above are taken from EP0598011B1, “ECDYSTEROID DEPENDENT REGULATION OF GENES IN MAMMALIAN CELLS” (GENENTECH, INC., priority 1991, dated 1993).
